Laboratory results reported in patent US20130331442A1, “Combination Therapy for Cancer” (FINVECTOR VISION THERAPIES LTD, priority 2011, published 2013).
Entries after “also recorded” stand apart in the source; their conditions may differ.

Assays:
[1] = WBC and platelet counts in rats; assay type: in vivo, rat
rat glioma model = details: TMZ therapy alone, in vivo experiments
Method: A study was conducted concerning tumour growth rate in a rat glioma model.

BT4C cell line = experiment: in vitro cytotoxicity of TMZ on BT4C cell line; assay type: cell-based
Excerpt: However, both in vitro and in vivo experiments there were no effect with TMZ therapy alone, implicating that other mechanism of resistance are in operation.
The efficacy of TMZ is known to be affected by different DNA repair activities (Kaina, 2003; Kaina et al., 2007; Parkinson et al., 2008; Takagi et al., 2003; Takagi et al., 2008) and by the presence of functional p53 activity (Blough et al. (2010) J Neurooncol.).

SMILES | WBC counts [1] | platelet counts [1] | effect of therapy in vivo (rat glioma model) | cytotoxicity (BT4C cell line; BT4C cells first treated with AdHSV-tk/GCV, TMZ in high concentration) | effect of treatment in vitro (cytotoxicity) (BT4C cell line; BT4C cells, TMZ alone, up to 1000 μM)
Nc1nc(O)c2ncn(COC(CO)CO)c2n1 [GCV, Ganciclovir] | did not reduce these values significantly | did not reduce these values significantly | – | – | –
Cn1nnc2c(C(N)=O)ncn2c1=O [TMZ, Temozolomide] | profound adverse effect | profound adverse effect | no effect | started to demonstrate cytotoxicity | no effect; also recorded: does not respond to the treatment
